Laboratory results as given in publication PMC10223454, “Functional Characterization of a New Degradation Peptide BmTX4-P1 from Traditional Chinese Scorpion Medicinal Material” (Toxins, 2023).
Peptide text beside a SMILES is read from it.

Key:
[1] = test system: hKv1.6 channel; test: whole-cell patch clamp, hKv1.6 channel currents; type: cell-based, human; settings: 1 µM, transiently transfected HEK293 cells, mean ± SE, n ≥ 3
Text: (§1) The source of potassium channel plasmids was described in detail in previous articles. The cDNA encoding hKv1.1 channel, hKv1.3 channel, and rKv4.3 channel were subcloned into the vector of pCDNA3.1(+). The cDNA encoding hKv1.2 channel, hKv1.6 channel, hKv3.2 channel, hERG channel, and mKv4.1 channel were subcloned into the vector of pIRES2-EGFP. The cDNA encoding rKv4.2 was subcloned into the vector of pEGFP-N1.
(§2) DMEM (Gibco, Pittsburgh, PA, USA) with 10% fetal bovine serum and 1% penicillin/streptomycin was applied to culture HEK293T cells in an incubator with 5% CO2 at 37 °C. According to the manufacturer’s instructions, ExFect Transfection Reagent (Vazyme, Nanjing, China) was used to co-transfect the plasmids of pEGFP-N1 and potassium channels into HEK293T cells. Fluorescence-positive cells were selected for electrophysiological experiments after transfection for 12 h to 24 h.
(§3) Whole-cell channel currents were measured and recorded by an EPC-10 patch-clamp amplifier controlled by PatchMaster (HEKA Elektronik, Lambrecht, Germany). The internal patch pipette solution and bath solution were prepared according to the protocol in previously published references. […] The currents of different potassium channels were generated and recorded following the respective protocols according to previously published references. […]

[2] = test system: hERG channel; test: in vitro; type: cell-based; settings: human, whole-cell patch clamp, transiently transfected HEK293 cells, mean ± SE, n ≥ 3, read-out: inhibition of hERG channel currents
Text: as §1, §2, §3

[3] = test system: mKv4.3 channel; test: whole-cell patch clamp, mKv4.3 channel currents; type: cell-based, mouse; settings: 1 µM, transiently transfected HEK293 cells, mean ± SE, n ≥ 3
[4] = target: T1, hKv1.3 channel (Homo sapiens, UniProt P22001); test: whole-cell patch clamp, hKv1.3 channel currents; type: cell-based; settings: for IC50: peak tail current, Hill equation fit
T1 construct: expressed in transfected cells
Text: as §1, §2
(§4) Whole-cell channel currents were measured and recorded by an EPC-10 patch-clamp amplifier controlled by PatchMaster (HEKA Elektronik, Lambrecht, Germany). The internal patch pipette solution and bath solution were prepared according to the protocol in previously published references. Bath solution with 0.01% BSA (Gibco, Pittsburgh, PA, USA) was used to dissolve peptides for electrophysiological testing. The external recording bath solution was exchanged by the MPS-2 multichannel microperfusion system (INBIO Inc., Wuhan, China). The currents of different potassium channels were generated and recorded following the respective protocols according to previously published references. The results of the electrophysiological experiment are presented as the mean ± SE, and more than three cells from each sample were examined (n ≥ 3).
(§5) The software of Clampfit (Molecular Devices, Sunnyvale, CA, USA) and Sigmaplot (IBM SPSS, Chicago, IL, USA) were applied to analyze the electrophysiological data. In order to obtain IC50 values, the concentrations of peptides and currents of potassium channels were used to fit the modified Hill equation for dose–response relationships: Ipeptide/Icontrol = 1/[1 + Cpeptide/IC50], in which Ipeptide and Icontrol represent the peak tail current of potassium channels in the presence and absence of peptide, Cpeptide represents the concentration of peptides and IC50 represents the half-maximum inhibition concentration. The results are presented as the mean ± SE.

[5] = test system: rKv4.1 channel; test: whole-cell patch clamp, rKv4.1 channel currents; type: cell-based, rat; settings: 1 µM, transiently transfected HEK293 cells, mean ± SE, n ≥ 3
[6] = test system: rKv4.2 channel; test: whole-cell patch clamp, rKv4.2 channel currents; type: cell-based, rat; settings: 1 µM, transiently transfected HEK293 cells, mean ± SE, n ≥ 3
Text: as §1, §2, §3

[7] = test system: hKv1.1 channel; test: whole-cell patch clamp, hKv1.1 channel currents; type: cell-based, human; settings: 1 µM, n ≥ 3
Text: as §1, §2, §3

[8] = test system: hKv3.2 channel; test: whole-cell patch clamp, hKv3.2 channel currents; type: cell-based, human; settings: 1 µM, transiently transfected HEK293 cells, mean ± SE, n ≥ 3
Text: as §1, §2, §3

[9] = target: T2, hKv1.2 channel (Homo sapiens, UniProt P16389); test: whole-cell patch clamp, hKv1.2 channel currents; type: cell-based; settings: for IC50: peak tail current, Hill equation fit
T2 construct: expressed in transfected cells
Text: as §1, §2, §4, §5

[10] = 1 µM, transiently transfected HEK293 cells, mean ± SE, n ≥ 3

T1 sequence (P22001 whole entry): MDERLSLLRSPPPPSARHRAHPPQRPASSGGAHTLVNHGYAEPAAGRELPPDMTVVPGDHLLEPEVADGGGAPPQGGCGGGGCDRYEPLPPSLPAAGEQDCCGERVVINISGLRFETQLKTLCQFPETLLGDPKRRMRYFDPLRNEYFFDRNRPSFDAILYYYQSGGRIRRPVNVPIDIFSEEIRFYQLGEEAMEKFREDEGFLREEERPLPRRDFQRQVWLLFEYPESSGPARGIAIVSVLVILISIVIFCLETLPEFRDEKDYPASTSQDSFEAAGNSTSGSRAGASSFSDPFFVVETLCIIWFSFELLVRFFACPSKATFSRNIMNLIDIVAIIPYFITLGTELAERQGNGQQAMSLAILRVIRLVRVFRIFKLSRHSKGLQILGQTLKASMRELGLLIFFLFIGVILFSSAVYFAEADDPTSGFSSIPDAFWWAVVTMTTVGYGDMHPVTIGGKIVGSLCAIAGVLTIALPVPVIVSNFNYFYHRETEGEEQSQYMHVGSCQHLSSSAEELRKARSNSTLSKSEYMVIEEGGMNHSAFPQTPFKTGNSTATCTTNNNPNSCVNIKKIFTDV
T2 sequence (P16389 whole entry): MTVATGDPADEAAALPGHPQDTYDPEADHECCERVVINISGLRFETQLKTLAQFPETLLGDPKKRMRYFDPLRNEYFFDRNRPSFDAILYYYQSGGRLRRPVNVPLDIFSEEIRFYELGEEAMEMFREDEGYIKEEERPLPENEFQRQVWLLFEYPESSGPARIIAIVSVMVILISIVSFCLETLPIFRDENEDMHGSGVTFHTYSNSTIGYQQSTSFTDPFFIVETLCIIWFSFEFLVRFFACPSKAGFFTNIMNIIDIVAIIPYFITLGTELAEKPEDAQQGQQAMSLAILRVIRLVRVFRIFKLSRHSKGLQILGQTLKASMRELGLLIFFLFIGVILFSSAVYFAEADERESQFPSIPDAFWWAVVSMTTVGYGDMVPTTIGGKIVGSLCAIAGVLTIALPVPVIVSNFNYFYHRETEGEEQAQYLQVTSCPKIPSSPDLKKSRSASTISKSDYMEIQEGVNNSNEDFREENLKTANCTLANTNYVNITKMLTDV

CSCC[C@@H]1NC(=O)[C@@H]2CSSC[C@H](NC(=O)[C@@H](N)CCCCN)C(=O)N[C@@H]([C@@H](C)O)C(=O)N[C@@H](C)C(=O)N[C@@H](CO)C(=O)N[C@@H](CCCCN)C(=O)N[C@@H](CCC(N)=O)C(=O)N[C@H]3CSSC[C@H](NC(=O)[C@H](CCCCN)NC(=O)CNC(=O)[C@H](CC(N)=O)NC1=O)C(=O)N[C@@H](CCCNC(=N)N)C(=O)N[C@H](C(=O)N[C@@H](Cc1ccc(O)cc1)C(=O)O)CSSC[C@H](NC(=O)[C@H](C(C)C)NC(=O)[C@@H]1CCCN1C(=O)[C@H](Cc1c[nH]c4ccccc14)NC3=O)C(=O)N[C@@H](CCCCN)C(=O)N[C@@H](CCC(N)=O)C(=O)N[C@@H](CCSC)C(=O)N[C@@H](Cc1ccccc1)C(=O)NCC(=O)N[C@@H](CCCCN)C(=O)N1CCC[C@H]1C(=O)N[C@@H](CC(N)=O)C(=O)NCC(=O)N[C@@H](CCCCN)C(=O)N2 [sBmTX4-P1] (HELM PEPTIDE1{K.C.T.A.S.K.Q.C.W.P.V.C.K.Q.M.F.G.K.P.N.G.K.C.M.N.G.K.C.R.C.Y}$PEPTIDE1,PEPTIDE1,2:R3-23:R3|PEPTIDE1,PEPTIDE1,8:R3-28:R3|PEPTIDE1,PEPTIDE1,12:R3-30:R3$$$V2.0; N-terminus and C-terminus assumed; bridges inferred)
inhibition of hKv1.6 channel currents [1]: 18.3 ± 4.3%
inhibition at 1 µM [2]: 35.7 ± 2.1%
inhibition of mKv4.3 channel currents [3]: 6.8 ± 2.8%
inhibition at 0.008 µM ([4]; 8 nM, mean ± SE, n ≥ 3, read-out: inhibition rate of hKv1.3 channel current): 13.6 ± 3.7%
inhibition at 0.04 µM ([4]; 40 nM, mean ± SE, n ≥ 3, read-out: inhibition rate of hKv1.3 channel current): 32.6 ± 5.3%
inhibition at 0.2 µM ([4]; 200 nM, mean ± SE, n ≥ 3, read-out: inhibition rate of hKv1.3 channel current): 60.7 ± 2.9%
inhibition at 1 µM [4, 10]: 73.1 ± 2.8%
IC50 ([4]; mean ± SE, n ≥ 3): 124 ± 26.7 nM
inhibition of rKv4.1 channel currents [5]: 7.0 ± 1.8%
inhibition of rKv4.2 channel currents [6]: 6.9 ± 4.6%
inhibition of hKv1.1 channel currents ([7]; transiently transfected HEK293 cells, mean ± SE): 5.9 ± 1.5%
inhibition of hKv3.2 channel currents [8]: 5.3 ± 3.1%
inhibition at 0.008 µM ([9]; 8 nM, mean ± SE, n ≥ 3, read-out: inhibition rate of hKv1.2 channel current): 13.5 ± 1.6%
inhibition at 0.04 µM ([9]; 40 nM, mean ± SE, n ≥ 3, read-out: inhibition rate of hKv1.2 channel current): 40.2 ± 3.7%
inhibition at 0.2 µM ([9]; 200 nM, mean ± SE, n ≥ 3, read-out: inhibition rate of hKv1.2 channel current): 66 ± 6.3%
inhibition at 1 µM [9, 10]: 88.4 ± 2%
IC50 ([9]; mean ± SE, n ≥ 3): 74.7 ± 7 nM

CSCC[C@@H]1NC(=O)[C@@H]2CSSC[C@H](NC(=O)[C@@H](N)CCCCN)C(=O)N[C@@H]([C@@H](C)O)C(=O)N[C@@H](C)C(=O)N[C@@H](CO)C(=O)N[C@@H](CCCCN)C(=O)N[C@@H](CCC(N)=O)C(=O)N[C@H]3CSSC[C@H](NC(=O)[C@H](CCCCN)NC(=O)CNC(=O)[C@H](CC(N)=O)NC1=O)C(=O)N[C@@H](CCCNC(=N)N)C(=O)N[C@H](C(=O)N[C@@H](Cc1ccc(O)cc1)C(=O)O)CSSC[C@H](NC(=O)[C@H](C(C)C)NC(=O)[C@@H]1CCCN1C(=O)[C@H](Cc1c[nH]c4ccccc14)NC3=O)C(=O)N[C@@H](CCCCN)C(=O)N[C@@H](CCC(N)=O)C(=O)N[C@@H](CCSC)C(=O)N[C@@H](Cc1ccccc1)C(=O)NCC(=O)N[C@@H](CCCCN)C(=O)N1CCC[C@H]1C(=O)N[C@@H](CC(N)=O)C(=O)NCC(=O)N[C@@H](CCCCN)C(=O)N2 [rBmTX4-P1] (HELM PEPTIDE1{K.C.T.A.S.K.Q.C.W.P.V.C.K.Q.M.F.G.K.P.N.G.K.C.M.N.G.K.C.R.C.Y}$PEPTIDE1,PEPTIDE1,2:R3-23:R3|PEPTIDE1,PEPTIDE1,8:R3-28:R3|PEPTIDE1,PEPTIDE1,12:R3-30:R3$$$V2.0; C-terminus assumed; bridges inferred)
inhibition of hKv1.3 channel current (in words) ([4]; 1 µM): inhibited the currents of the hKv1.2 and hKv1.3 channels with high affinities
IC50 ([4]; mean ± SE, n ≥ 3): 247 ± 47.9 nM
effect on hKv1.1 channel current (in words) [7]: hardly inhibited the hKv1.1 channel current
inhibition of hKv1.2 channel current (in words) ([9]; 1 µM): inhibited the currents of the hKv1.2 and hKv1.3 channels with high affinities
IC50 ([9]; mean ± SE, n ≥ 3): 45.7 ± 9.2 nM
